Laboratory results from ChEMBL document CHEMBL6182913, “Design of Potent Small-Molecule Stimulator of Interferon Gene Inhibitor and Stimulator of Interferon Gene Mutant-Specific Degrader” (J Med Chem, 2025).
The source made the active and inactive calls. The calls are words filed in the database; no cut-off is given here.

How the values were obtained:
[1] = target: T1, Stimulator of interferon genes protein (Homo sapiens, UniProt Q86WV6); assay: Induction of STING S154 mutant degradation in human THP-1 cells incubated for 24 hrs by Western blotting analysis; assay type: cell-based
Target sequence in this assay (Q86WV6 whole entry, looked up, change not shown): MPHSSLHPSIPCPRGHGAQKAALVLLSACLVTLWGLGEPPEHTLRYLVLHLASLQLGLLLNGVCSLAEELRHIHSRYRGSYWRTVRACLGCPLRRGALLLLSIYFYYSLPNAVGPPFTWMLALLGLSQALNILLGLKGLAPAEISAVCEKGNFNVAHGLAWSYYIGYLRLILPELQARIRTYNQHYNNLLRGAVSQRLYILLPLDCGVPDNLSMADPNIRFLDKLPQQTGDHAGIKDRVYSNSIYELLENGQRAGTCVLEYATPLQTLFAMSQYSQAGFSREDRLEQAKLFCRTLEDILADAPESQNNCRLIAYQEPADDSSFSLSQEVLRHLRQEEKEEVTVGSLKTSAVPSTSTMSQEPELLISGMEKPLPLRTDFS

[2] = Metabolic stability in mouse plasma assessed as half life in presence of NADPH by LC-MS/MS analysis; assay type: ADME, cell-free
[3] = target: T2, Stimulator of interferon genes protein (Mus musculus) (UniProt Q3TBT3); assay: Inhibition of STING in mouse BMDM cells assessed as inhibition of ODN 2395-induced IFN-beta release at 0.05 to 0.5 uM pretreated with compound for 6 hrs followed by ODN 2395 addition and measured after 18 hrs by ELISA; assay type: cell-based; conditions: dose 0.05-0.5 µM, time 24.0 hrs
T2 sequence (whole entry): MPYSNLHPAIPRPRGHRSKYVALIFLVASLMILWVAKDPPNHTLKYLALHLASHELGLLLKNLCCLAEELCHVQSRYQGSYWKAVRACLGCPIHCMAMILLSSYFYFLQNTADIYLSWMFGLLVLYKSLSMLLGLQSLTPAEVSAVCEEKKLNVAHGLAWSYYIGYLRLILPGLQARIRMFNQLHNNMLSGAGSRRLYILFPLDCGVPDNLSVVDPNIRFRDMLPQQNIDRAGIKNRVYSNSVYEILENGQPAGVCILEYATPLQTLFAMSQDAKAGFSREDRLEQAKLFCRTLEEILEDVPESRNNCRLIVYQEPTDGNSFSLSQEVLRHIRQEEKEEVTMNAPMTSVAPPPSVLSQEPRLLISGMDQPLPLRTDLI

[4] = target: T2, Stimulator of interferon genes protein (Mus musculus); assay: In vivo inhibition of cGAMP-induced STING activation in autoimmune disease female C57BL/6 mouse model assessed as decrease in cGAMP-induced serum INF-beta level at 20 mg/kg, po pretreated with compound for 2 hrs followed by cGAMP addition and measured after 3 hrs by ELISA; assay type: functional, organism-based
[5] = target: T1, Stimulator of interferon genes protein; assay: Inhibition of STING activation in human THP1-Blue ISG cells assessed as inhibition of c-GAMP-induced STING oligomerization at 0.1 to 1 uM preincubated with compound for 6 hrs followed by cGAMP addition and measured after 3 hrs by Western blotting analysis; assay type: cell-based; conditions: dose 0.1-1 µM, time 9.0 hrs
Target sequence in this assay (Q86WV6 whole entry): as the sequence (Q86WV6 whole entry, looked up, change not shown) above

[6] = target: T1, Stimulator of interferon genes protein; assay: Induction of STING M155 mutant degradation in human THP-1 cells incubated for 24 hrs by Western blotting analysis; assay type: cell-based
Target sequence in this assay (Q86WV6 whole entry, looked up, change not shown): as the sequence (Q86WV6 whole entry, looked up, change not shown) above

[7] = Metabolic stability in human plasma assessed as half life in presence of NADPH by LC-MS/MS analysis; assay type: ADME, cell-free
[8] = AUC in mouse at 20 mg/kg, po by LC-MS/MS analysis; assay type: ADME, organism-based; conditions: in vivo
[9] = target: T2, Stimulator of interferon genes protein (Mus musculus); assay: Inhibition of STING in mouse BMDM cells assessed as inhibition of cGAMP-induced IFN-beta release at 0.05 to 0.5 uM pretreated with compound for 6 hrs followed by cGAMP addition and measured after 18 hrs by ELISA; assay type: cell-based; conditions: dose 0.05-0.5 µM, time 24.0 hrs
[10] = test system: Stimulator of interferon genes protein (Homo sapiens), Q86WV6 [UNDEFINED MUTATION]; assay: Induction of STING S154 mutant degradation in human THP-1 cells by measuring maximum efficacy at 0.01 to 10 uM incubated for 24 hrs by Western blotting analysis relative to control; assay type: cell-based; conditions: dose 0.01-10 µM
[11] = Apparent oral clearance in mouse at 20 mg/kg, po by LC-MS/MS analysis; assay type: ADME, organism-based; conditions: in vivo
[12] = test system: Stimulator of interferon genes protein (Homo sapiens), Q86WV6 [UNDEFINED MUTATION]; assay: Induction of STING M155 mutant degradation in human THP-1 cells at 5 uM incubated for 24 hrs by global proteomics analysis; assay type: cell-based
[13] = test system: Stimulator of interferon genes protein (Homo sapiens), Q86WV6 [UNDEFINED MUTATION]; assay: Induction of STING M155 mutant degradation in human THP-1 cells at 1 uM preincubated with Baf A1 for 2 hrs followed by compound addition and measured after 22 hrs by Western blotting analysis; assay type: cell-based
[14] = test system: Stimulator of interferon genes protein (Homo sapiens), Q86WV6 [UNDEFINED MUTATION]; assay: Induction of STING M155 mutant degradation in human THP-1 cells at 1 uM preincubated with MLN4924 for 2 hrs followed by compound addition and measured after 22 hrs by Western blotting analysis; assay type: cell-based
[15] = target: T1, Stimulator of interferon genes protein; assay: Inhibition of cGAMP-induced STING R232 mutant transfected human THP-1 cells preincubated with compound for 6 hrs followed by cGAMP addition and measured after 18 hrs by QUANTI-Luc based microplate reader analysis; assay type: cell-based
Target sequence in this assay (Q86WV6 whole entry, looked up, change not shown): as the sequence (Q86WV6 whole entry, looked up, change not shown) above

[16] = target: T3, Stimulator of interferon genes protein (Mus musculus, UniProt Q3TBT3); assay: Inhibition of cGAMP-induced mouse STING transfected in human THP-1 cells preincubated with compound for 6 hrs followed by cGAMP addition and measured after 18 hrs by QUANTI-Luc based microplate reader analysis; assay type: cell-based
T3 sequence (Q3TBT3 whole entry): T2 sequence (whole entry)

[17] = Metabolic stability in human liver microsomes assessed as half life at 10 uM in presence of NADPH by LC-MS/MS analysis; assay type: ADME, Microsome
[18] = test system: Stimulator of interferon genes protein (Homo sapiens), Q86WV6 [UNDEFINED MUTATION]; assay: Induction of STING M155 mutant degradation in human THP-1 cells by measuring maximum efficacy at 0.01 to 10 uM incubated for 24 hrs by Western blotting analysis relative to control; assay type: cell-based; conditions: dose 0.01-10 µM
[19] = target: T2, Stimulator of interferon genes protein (Mus musculus); assay: In vivo inhibition of cGAMP-induced STING activation in autoimmune disease female C57BL/6 mouse model assessed as decrease in cGAMP-induced serum CXCL-10 level at 20 mg/kg, po pretreated with compound for 2 hrs followed by cGAMP addition and measured after 3 hrs by ELISA; assay type: functional, organism-based
[20] = test system: Stimulator of interferon genes protein (Homo sapiens), Q86WV6 [UNDEFINED MUTATION]; assay: Induction of STING S154 mutant degradation in human THP-1 cells at 1 uM incubated for 48 hrs by Western blotting analysis; assay type: cell-based
[21] = target: T1, Stimulator of interferon genes protein; assay: Inhibition of STING activation in human THP1-Blue ISG cells assessed as reduction in STING dimer level at 0.1 to 1 uM incubated for 9 hrs by Western blotting analysis; assay type: cell-based; conditions: dose 0.1-1 µM
Target sequence in this assay (Q86WV6 whole entry): as the sequence (Q86WV6 whole entry, looked up, change not shown) above

[22] = test system: Stimulator of interferon genes protein (Homo sapiens), Q86WV6 [UNDEFINED MUTATION]; assay: Induction of STING M155 mutant degradation in human THP-1 cells at 1 uM incubated for 12 hrs by Western blotting analysis; assay type: cell-based
[23] = target: T2, Stimulator of interferon genes protein (Mus musculus); assay: Inhibition of STING in mouse BMDM cells assessed as inhibition of cGAMP-induced CXCL-10 release at 0.05 to 0.5 uM pretreated with compound for 6 hrs followed by cGAMP addition and measured after 18 hrs by ELISA; assay type: cell-based; conditions: dose 0.05-0.5 µM, time 24.0 hrs
[24] = target: T1, Stimulator of interferon genes protein; assay: Inhibition of STING activation in human THP1-Blue ISG cells assessed as decrease in cGAMP-induced STING phosphorylation at 0.1 to 1 uM preincubated with compound for 6 hrs followed by cGAMP addition and measured after 3 hrs by Western blotting analysis; assay type: cell-based; conditions: dose 0.1-1 µM, time 9.0 hrs
Target sequence in this assay (Q86WV6 whole entry): as the sequence (Q86WV6 whole entry, looked up, change not shown) above

[25] = test system: Stimulator of interferon genes protein (Homo sapiens), Q86WV6 [UNDEFINED MUTATION]; assay: Induction of STING M155 mutant degradation in human THP-1 cells at 1 uM preincubated with MG132 for 2 hrs followed by compound addition and measured after 22 hrs by Western blotting analysis; assay type: cell-based
[26] = target: T1, Stimulator of interferon genes protein; assay: Inhibition of STING in human THP-1 cells assessed as inhibition of cGAMP-induced IFN-beta release at 0.05 to 0.5 uM pretreated with compound for 6 hrs followed by cGAMP addition and measured after 18 hrs by ELISA; assay type: cell-based; conditions: dose 0.05-0.5 µM, time 24.0 hrs
Target sequence in this assay (Q86WV6 whole entry): as the sequence (Q86WV6 whole entry, looked up, change not shown) above

[27] = target: T2, Stimulator of interferon genes protein (Mus musculus); assay: Inhibition of STING in mouse BMDM cells assessed as inhibition of poly(I:C) -induced IFN-beta release at 0.05 to 0.5 uM pretreated with compound for 6 hrs followed by poly(I:C) addition and measured after 18 hrs by ELISA; assay type: cell-based; conditions: dose 0.05-0.5 µM, time 24.0 hrs

Chain of Stimulator of interferon genes protein (Homo sapiens), Q86WV6 [UNDEFINED MUTATION] (Q86WV6 whole entry, looked up, stated change not applied): as the sequence (Q86WV6 whole entry, looked up, change not shown) above

Which results are given for `COc1ccc2c(c1)C(=O)N(c1ccc(C(C)(C)C)c(F)c1)C(c1cc3cc(-c4ccc(C(=O)Nc5ccc(O)c(NS(C)(=O)=O)c5)cc4)ccc3o1)C2C(N)=O` (configuration not stated)?
DC50 [1]: 0.31 µM; half-life [2]: > 4 h; inhibition [3]: inactive; inhibition [4]: Active; inhibition [5]: Active; DC50 [6]: 0.76 µM; half-life [7]: > 4 h; AUC [8]: 2020 ng·h/mL; inhibition [9]: Active; Emax [10]: 89%; CL/F [11]: 163 mL/min/kg; Activity [12]: Active; Activity [13]: inactive; Activity [14]: Active; IC50 [15]: 0.03 µM; IC50 [16]: 0.03 µM; half-life at 10 µM [17]: > 1 h; Emax [18]: 92%; inhibition [19]: Active; Activity [20]: Active; Compound Showed Maximum Degradation; inhibition [21]: Active; Activity [22]: Active; inhibition [23]: Active; inhibition [24]: Active; Activity [25]: Active; inhibition [26]: Active; inhibition [27]: inactive
